# Test results as given in US5593985A, “Cephalosporin compounds” (priority 1994, dated 1997).
# Read-outs that look alike come from different tables or passages of the source.
# Tests used:
# Assay type in all cases: cell-based
# [1] = test system: Pseudomonas aeruginosa 1592 E; test: MIC, standard strain 13; settings: P. aeruginosa 1592 E, two-fold dilution, Muller Hinton agar, 10^7 CFU/ml, 37° C., 18 hours, read-out: Minimal Inhibitory Concentration(MIC)
# Experimental: (§1) In order to illustrate antibiotic effectiveness of the compounds of the present invention, the minimal inhibitory concentrations (MIC's) of the representative compounds were determined against standard strains and compared with ceftazidime and cefpirome, which were used as control compounds.
# (§2) The MIC values were taken by employing a two-fold dilution method: that is, two-fold serial dilutions of each of the test compounds were made from initial concentration of […]; each 1.5 ml of them was dispersed in 13.5 ml of Muller Hinton agar medium to adjust to […]; the standard test strain which had the concentration of 10^7 CFU/ml was inoculated by medium;and these were incubated at 37° C. for 18 hours.
# (§3) The test used twenty kinds of standard test strains which induced urinary tract infections, respiratory organ infections, skin soft tissue infections, plasma infections, gastrointestinal infections, central nervous system infections, most of which produce β-lactamase. The standard test strains used are as follows:
# 13. Pseudomonas aeruginosa 1592 E
# [2] = test system: Staphylococcus aureus SG 511; test: MIC, standard strain 4; settings: read-out: Minimal Inhibitory Concentration(MIC)
# Experimental: as §1, §2, §3
# 4. Staphylococcus aureus SG 511
# Streptococcus faecium 8b = test: MIC, standard strain 3; settings: Enterococcus faecium, read-out: Minimal Inhibitory Concentration(MIC)
# Experimental: as §1, §2, §3
# 3. Streptococcus faecium 8b
# Salmonella typhimurium = test: MIC, standard strain 16; settings: Salmonella enterica, read-out: Minimal Inhibitory Concentration(MIC)
# Experimental: as §1, §2, §3
# 16. Salmonella typhimurium
# Escherichia coli 1507 E = test: MIC, standard strain 11; settings: E. coli 1507 E, two-fold dilution, Muller Hinton agar, 10^7 CFU/ml, 37° C., 18 hours, read-out: Minimal Inhibitory Concentration(MIC)
# Experimental: as §1, §2
# (§4) The test used twenty kinds of standard test strains which induced urinary tract infections, respiratory organ infections, skin soft tissue infections, plasma infections, gastrointestinal infections, central nervous system infections, most of which produce β-lactamase.
# [3] = test system: Streptococcus pyogenes A 77; test: MIC, standard strain 2; settings: A77, S. pyogenes A 77, two-fold dilution, Muller Hinton agar, 10^7 CFU/ml, 37° C., 18 hours, read-out: Minimal Inhibitory Concentration(MIC)
# Experimental: as §1, §2, §3
# 2. Streptococcus pyogenes A 77
# [4] = test system: Pseudomonas aeruginosa 1771; test: MIC, standard strain 14; settings: Pseudomonas aeruginosa; P. aeruginosa 1771; two-fold dilution, Muller Hinton agar, 10^7 CFU/ml, 37° C., 18 hours; read-out: Minimal Inhibitory Concentration(MIC)
# Experimental: as §1, §2, §3
# 14. Pseudomonas aeruginosa 1771
# [5] = test system: Pseudomonas aeruginosa 9.027; test: MIC, standard strain 12; settings: Pseudomonas aeruginosa; P. aeruginosa 9.027; two-fold dilution, Muller Hinton agar, 10^7 CFU/ml, 37° C., 18 hours; read-out: Minimal Inhibitory Concentration(MIC)
# Experimental: as §1, §2, §3
# 12. Pseudomonas aeruginosa 9.027
# Escherichia coli 0 55 = test: MIC, standard strain 7; settings: 055, E. coli 0 55, two-fold dilution, Muller Hinton agar, 10^7 CFU/ml, 37° C., 18 hours, read-out: Minimal Inhibitory Concentration(MIC)
# Experimental: as §1, §2, §4
# [6] = test system: Klebsiella aerogenes 1552 E; test: MIC, standard strain 18; settings: K. aerogenes 1552 E, two-fold dilution, Muller Hinton agar, 10^7 CFU/ml, 37° C., 18 hours, read-out: Minimal Inhibitory Concentration(MIC)
# Experimental: as §1, §2, §3
# 18. Klebsiella aerogenes 1552 E
# Escherichia coli TEM = test: MIC, standard strain 10; settings: 18 h, read-out: Minimal Inhibitory Concentration(MIC)
# Experimental: as §1, §2, §4
# [7] = test system: Staphylococcus aureus 285; test: MIC, standard strain 5; settings: Staphylococcus aureus; S. aureus 285; two-fold dilution, Muller Hinton agar, 10^7 CFU/ml, 37° C., 18 hours; read-out: Minimal Inhibitory Concentration(MIC)
# Experimental: as §1, §2, §3
# 5. Staphylococcus aureus 285
# [8] = test system: Enterobacter cloacae P 99; test: MIC, standard strain 19; settings: P99, 18 h, read-out: Minimal Inhibitory Concentration(MIC)
# Experimental: as §1, §2, §3
# 19. Enterobacter cloacae P 99
# Escherichia coli DC 2 = test: MIC, standard strain 9; settings: DC2, E. coli DC 2, two-fold dilution, Muller Hinton agar, 10^7 CFU/ml, 37° C., 18 hours, read-out: Minimal Inhibitory Concentration(MIC)
# Experimental: as §1, §2, §4
# [9] = test system: Streptococcus pyogenes A 308; test: MIC, standard strain 1; settings: read-out: Minimal Inhibitory Concentration(MIC)
# Experimental: as §1, §2, §3
# 1. Streptococcus pyogenes A 308
# [10] = test system: Pseudomonas aeruginosa 1771M; test: MIC, standard strain 15; settings: 18 h, read-out: Minimal Inhibitory Concentration(MIC)
# Experimental: as §1, §2, §3
# 15. Pseudomonas aeruginosa 1771M
# Escherichia coli DC 0 = test: MIC, standard strain 8; settings: DC0, E. coli DC 0, two-fold dilution, Muller Hinton agar, 10^7 CFU/ml, 37° C., 18 hours, read-out: Minimal Inhibitory Concentration(MIC)
# Experimental: as §1, §2, §4
# [11] = test system: Enterobacter cloacae 1321 E; test: MIC, standard strain 20; settings: read-out: Minimal Inhibitory Concentration(MIC)
# Experimental: as §1, §2, §3
# 20. Enterobacter cloacae 1321 E
# [12] = test system: Staphylococcus aureus 503; test: MIC, standard strain 6; settings: read-out: Minimal Inhibitory Concentration(MIC)
# Experimental: as §1, §2, §3
# 6. Staphylococcus aureus 503
# [13] = SG511, S. aureus SG 511, two-fold dilution, Muller Hinton agar, 10^7 CFU/ml, 37° C., 18 hours
# [14] = S. faecium 8b, two-fold dilution, Muller Hinton agar, 10^7 CFU/ml, 37° C., 18 hours
# [15] = S. typhimurium, two-fold dilution, Muller Hinton agar, 10^7 CFU/ml, 37° C., 18 hours
# [16] = A308, S. pyogenes A 308, two-fold dilution, Muller Hinton agar, 10^7 CFU/ml, 37° C., 18 hours
# [17] = Staphylococcus aureus, S. aureus 503, two-fold dilution, Muller Hinton agar, 10^7 CFU/ml, 37° C., 18 hours
# [18] = E. cloacae 1321 E, two-fold dilution, Muller Hinton agar, 10^7 CFU/ml, 37° C., 18 hours
Structure (SMILES),MIC [1] [µg/mL],"MIC [2, 13] [µg/mL]",MIC (Streptococcus faecium 8b; [14]) [µg/mL],MIC (Salmonella typhimurium; [15]) [µg/mL],MIC (Escherichia coli 1507 E) [µg/mL],MIC [3] [µg/mL],MIC [4] [µg/mL],MIC [5] [µg/mL],MIC (Escherichia coli 0 55) [µg/mL],MIC [6] [µg/mL],MIC (Escherichia coli TEM) [µg/mL],MIC [7] [µg/mL],MIC [8] [µg/mL],MIC (Escherichia coli DC 2) [µg/mL],"MIC [9, 16] [µg/mL]",MIC [10] [µg/mL],MIC (Escherichia coli DC 0) [µg/mL],"MIC [12, 17] [µg/mL]","MIC [11, 18] [µg/mL]",further results
"NC(=O)c1cc[n+](CC2=C(C(=O)[O-])N3C(=O)[C@@H](NC(=O)/C(=N\OCCF)c4csc(N)n4)[C@H]3SC2)c2c1CCC2 [Example 14, 7-β-[(Z)-2-(2-aminothiazol-4-yl)-2-(2-fluoroethoxyimino)acetamido]-3-[(2,3-cyclopenteno-4-carbamoyl-l-pyridinium)methyl]-3-cephem-4-carboxylate]",6250,781,25000,49,49,13,781,6250,13,49,98,3120,12500,49,13,391,49,781,,"MIC ([11]; 1321E, 18 h): 25 µg/mL"
"CO/N=C(\C(=O)N[C@@H]1C(=O)N2C(C(=O)[O-])=C(C[n+]3ccc(NC(C)=O)c4c3CCC4)CS[C@H]12)c1csc(N)n1 [Example 17, 7-β-[(Z)-2-(2-aminothiazol-4-yl)-2-methoxyiminoacetamido]-3-[(4-acetamido-2,3-cyclopenteno-1-pyridinium)methyl]-3-cephem-4-carboxylate]",6250,781,,49,25,< 2,6250,12500,25,13,25,1560,12500,13,,1560,13,,13,"MIC (Streptococcus faecium 8b; 8B, 18 h): 100000 µg/mL; MIC ([9]; A308, 18 h): < 2 µg/mL; MIC ([12]; Staphylococcus aureus, 503, 18 h): 195 µg/mL"
CO/N=C(\C(=O)N[C@@H]1C(=O)N2C(C(=O)[O-])=C(C[n+]3ccc(NC=O)c4c3CCC4)CS[C@H]12)c1csc(N)n1 [Example 19],12500,391,25000,195,98,< 2,12500,12500,7,49,49,391,12500,13,< 2,1560,13,98,7,
"CO/N=C(\C(=O)N[C@@H]1C(=O)N2C(C(=O)[O-])=C(C[n+]3ccc(-c4nc(C)cs4)c4c3CCC4)CS[C@H]12)c1csc(N)n1 [Example 25, 7-β-[(Z)-2-(2-aminothiazol-4-yl)-2-methoxyiminoacetamido]-3-[(2,3-cyclopenteno-4-(4-methylthiazol-2-yl)-1-pyridinium)methyl]-3-cephem-4-carboxylate]",50000,,12500,,781,2,50000,100000,195,781,391,781,25000,25,4,1560,25,195,98,"MIC ([2]; SG511, 18 h): 391 µg/mL; MIC (Salmonella typhimurium; TYPHIMURIUM, 18 h): 391 µg/mL"
